Test results taken from patent publication US9145403B2, “Heterocyclic alkanol derivatives” (Bayer Intellectual Property GmbH, priority 2010, dated 2015).

What was measured:
Leptosphaeria nodorum = Leptosphaeria nodorum test (wheat)/protective; type: in vivo; conditions: young wheat plants sprayed at 500 ppm, inoculated 1 day after treatment, evaluation 7-9 days after inoculation; 0% = control, 100% = no infection
Experimental: Leptosphaeria nodorum Test (Wheat)/Protective Solvent: 49 parts by weight of N,N-dimethyformamide Emulsifler: 1 part by weight of alkylaryl polyglycol ether To produce an appropriate active ingredient formulation, 1 part by weight of active ingredient is mixed with the specified amounts of solvent and emulsifler, and the concentrate is diluted with water to the desired concentration. To test for protective activity, young plants are sprayed with the formulation of active ingredient at the stated application rate. One day after the treatment, the plants are inoculated with an aqueous spore suspension of Leptosphaeria nodorum and then remain at 100% relative air humidity and 22° C. for 48 h. The plants are then placed in a greenhouse at 90% relative air humidity and a temperature of 22° C. Evaluation follows 7-9 days after the inoculation. 0% means an efficacy which corresponds to that of the control, whereas an efficacy of 100% means that no infection is observed. In this test, the following inventive compounds, at an active ingredient concentration of 500 ppm, show an efficacy of 70% or more.

Puccinia recondita = assay: Puccinia test (wheat)/protective; type: in vivo; conditions: young wheat plants sprayed at 500 ppm, inoculated 1 day after treatment, evaluation 7-9 days after inoculation; 0% = control, 100% = no infection
Experimental: Puccinia Test (Wheat)/Protective Solvent: 49 parts by weight of N,N-dimethyformamide Emulsifier: 1 part by weight of alkylaryl polyglycol ether To produce an appropriate active ingredient formulation, 1 part by weight of active ingredient is mixed with the specified amounts of solvent and emulsifier, and the concentrate is diluted with water to the desired concentration. To test for protective activity, young plants are sprayed with the formulation of active ingredient at the stated application rate. One day after the treatment, the plants are inoculated with a spore suspension of Puccinia recondita and then left at 100% relative humidity and 22° C. for 48 h. The plants are then left at 80% relative air humidity and a temperature of 20° C. Evaluation follows 7-9 days after the inoculation. 0% means an efficacy which corresponds to that of the control, whereas an efficacy of 100% means that no infection is observed. In this test, the following inventive compounds, at an active ingredient concentration of 500 ppm, show an efficacy of 70% or more.

Sphaerotheca fuliginea = assay: Sphaerotheca test (cucumber)/protective; type: in vivo; conditions: young cucumber plants sprayed at 500 ppm, inoculated 1 day after treatment, evaluation 7 days after inoculation; 0% = control, 100% = no infection
Experimental: Table D: Sphaerotheca Test (Cucumber)/Protective Solvent: 49 parts by weight of N,N-dimethylformamide Emulsifier: 1 part by weight of alkylaryl polyglycol ether To produce an appropriate active ingredient formulation, 1 part by weight of active ingredient is mixed with the specified amounts of solvent and emulsifier, and the concentrate is diluted with water to the desired concentration. To test for protective activity, young cucumber plants are sprayed with the formulation of active ingredient at the stated application rate. 1 day after the treatment, the plants are inoculated with a spore suspension of Sphaerotheca fuliginea. The plants are then placed in a greenhouse at 70% relative air humidity and a temperature of 23° C. Evaluation follows 7 days after the inoculation. 0% means an efficacy which corresponds to that of the control, whereas an efficacy of 100% means that no infection is observed. In this test, the following inventive compounds, at an active ingredient concentration of 500 ppm, show an efficacy of 70% or more.

Alternaria solani = assay: Alternaria test (tomato)/protective; type: in vivo; conditions: young tomato plants sprayed at 500 ppm, inoculated 1 day after treatment, evaluation 7 days after inoculation; 0% = control, 100% = no infection
Experimental: Alternaria Test (Tomato)/Protective Solvent: 49 parts by weight of N,N-dimethyformamide Emulsifier: 1 part by weight of alkylaryl polyglycol ether To produce an appropriate active ingredient formulation, 1 part by weight of active ingredient is mixed with the specified amounts of solvent and emulsifier, and the concentrate is diluted with water to the desired concentration. To test for protective activity, young tomato plants are sprayed with the formulation of active ingredient at the stated application rate. One day after the treatment, the plants are inoculated with a spore suspension of Alternaria solani and are then left at 100% relative humidity and 22° C. for 24 hours. The plants are then left at 96% relative air humidity and a temperature of 20° C. Evaluation follows 7 days after the inoculation. 0% means an efficacy which corresponds to that of the control, whereas an efficacy of 100% means that no infection is observed. In this test, the following inventive compounds, at an active ingredient concentration of 500 ppm, show an efficacy of 70% or more.

[1] = log P by HPLC (EEC Directive 79/831 Annex V.A8), reversed-phase C18; type: physicochemical; conditions: reversed-phase C18 HPLC column; method [a]: LC-MS, acidic range, pH 2.7, 0.1% aqueous formic acid/acetonitrile, linear gradient 10% to 95% acetonitrile
Experimental: The log P values were measured in accordance with EEC Directive 79/831 Annex V.A8 by HPLC (High Performance Liquid Chromatography) using reversed-phase columns (C 18) by the following methods: [a] The LC-MS determination in the acidic range is effected at pH 2.7 with 0.1% aqueous formic acid and acetonitrile (contains 0.1% formic acid) as eluents; linear gradient from 10% acetonitrile to 95% acetonitrile.

SMILES | Efficacy (%) (Leptosphaeria nodorum) | Efficacy (%) (Puccinia recondita) | Efficacy (%) (Sphaerotheca fuliginea) | Efficacy (%) (Alternaria solani) | chromatographic logP [1]
CC(C)(C)c1ncc(OCC(O)(c2cncs2)C(C)(C)C)cn1 (centres unmarked) [Compound 2] | 95 |  |  |  | 
CC(C)(C)C(O)(COc1ccc(Cl)nc1)c1cncs1 (centres unmarked) [Compound 3] |  | 80 | 80 | 89 | 
CC(C)(C)C(O)(COc1cccnc1)c1cncs1 (centres unmarked) [Compound 4] |  | 80 |  |  | 0.89
CC(C)(C)C(O)(COc1cncnc1)c1cncs1 (centres unmarked) [Compound 6] | 70 |  |  |  | 1.4
